The values below come from US8987195B2 (priority 2012, dated 2015).

The subject of experiment [1] is HCV genotype 1b replicon. Briefly: HCV replicon assay, genotype 1b replicon EC50. In kind it is cell-based, Hepatitis C virus. The note with it: Hepatitis C virus, HCV replicon, genotype 1b, read-out: EC50 [gt-1b]. The method in brief: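 Potency comes from a four-parameter fit of signal as percent of DMSO control. Replicon-bearing cells were treated 24-48 hours with a compound dilution series in absence of G418, and replicon RNA was quantified normalized to cyclophilin A RNA, or luciferase read.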

For experiment [2], the target named is HCV NS3/4A protease genotype 1b (Hepatitis C virus genotype 1b, UniProt P26663). Briefly: HCV NS3/4A protease time-resolved fluorescence (TRF) assay, Ki against genotype 1b. In kind it is biochemical. The note with it: IC50 [gt-1b], NS3/4A protease TRF assay, genotype 1b enzyme 0.2 nM. The method in brief: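 Enzyme 0.2 nM 1b / 0.4 nM A156T / 0.025 nM 3a; 30 min preinc. w/ cpd; 25 nM TRF peptide; 2.5 h RT; ex 340/em 615 time-delayed; 4-param IC50 → Ki = IC50/(1+[S]/KM).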

Like-named read-outs stand apart in the source and are kept apart here.

Usually EC50 stands for the concentration needed to bring the measured effect to its halfway point. Broadly, the IC50 is the concentration that inhibits the measured activity by half.

For the compound `COc1ccc2nc(C(F)(F)F)c3c(c2c1)CC[C@]1(C[C@H]2C(=O)N[C@]4(C(=O)NS(=O)(=O)C5(C)CC5)C[C@H]4/C=C\CCCCC[C@H](NC(=O)OCC4(C)CC4)C(=O)N2C1)O3` [Example 498, (1-methylcyclopropyl)methyl [(2R,6S,12Z,13aS,14aR,16aS)-9′-methoxy-14a-{[(1-methylcyclopropyl)sulfonyl]carbamoyl}-5,16-dioxo-5′-(trifluoromethyl)-1,1′,2′,5,6,7,8,9,10,11,13a,14,14a,15,16,16a-hexadecahydrospiro[cyclopropa[e]pyrrolo[1,2-a][1,4]diazacyclopentadecine-2,3′-pyrano[2,3-c]quinolin]-6-yl]carbamate], the 50% effective concentration (EC50) in experiment [1] (K+ salt) was determined as 0.607 nM. The IC50 in experiment [2] (K+ salt) is 0.009 nM.

With `COc1ccc2nc(C(F)(F)F)c3c(c2c1)CC[C@]1(C[C@H]2C(=O)N[C@]4(C(=O)NS(=O)(=O)C5(C)CC5)C[C@H]4/C=C\CCCCC[C@H](NC(=O)OCC(F)F)C(=O)N2C1)O3` [Example 499, 2,2-difluoroethyl [(2R,6S,12Z,13aS,14aR,16aS)-9′-methoxy-14a-{[(1-methylcyclopropyl)sulfonyl]carbamoyl}-5,16-dioxo-5′-(trifluoromethyl)-1,1′,2′,5,6,7,8,9,10,11,13a,14,14a,15,16,16a-hexadecahydrospiro[cyclopropa[e]pyrrolo[1,2-a][1,4]diazacyclopentadecine-2,3′-pyrano[2,3-c]quinolin]-6-yl]carbamate], the EC50 in experiment [1] (K+ salt) turned out to be 0.433 nM. Moreover, in experiment [2] (K+ salt), the half-inhibitory concentration (IC50) was found to be 0.004 nM.

Turning to `COCC1(S(=O)(=O)NC(=O)[C@@]23C[C@H]2/C=C\CCCCC[C@H](NC(=O)C2CCC(=O)N(C)C2)C(=O)N2C[C@@]4(CCc5c(c(C(F)(F)F)nc6ccc(OC)cc56)O4)C[C@H]2C(=O)N3)CC1` (stereo partly drawn) [Example 500, (2R,6S,12Z,13aS,14aR,16aS)-9′-methoxy-N-{[1-(methoxymethyl)cyclopropyl]sulfonyl}-6-{[(1-methyl-6-oxopiperidin-3-yl)carbonyl]amino}-5,16-dioxo-5′-(trifluoromethyl)-1,1′,2′,6,7,8,9,10,11,13a,14,15,16,16a-tetradecahydrospiro[cyclopropa[e]pyrrolo[1,2-a][1,4]diazacyclopentadecine-2,3′-pyrano[2,3-c]quinoline]-14a(5H)-carboxamide], in experiment [1], the EC50 is 435 nM. The same compound came in with an IC50 in experiment [2] of 0.014 nM.

In the case of `COc1ccc2nc(C(F)(F)F)c3c(c2c1)CC[C@]1(C[C@H]2C(=O)N[C@]4(C(=O)NS(=O)(=O)C5(C)CC5)C[C@H]4/C=C\CCCCC[C@H](NC(=O)O[C@@H]4C[C@@H]5C[C@@H]5C4)C(=O)N2C1)O3` [Example 513, (1R,3r,5S)-bicyclo[3.1.0]hex-3-yl [(2R,6S,12Z,13aS,14aR,16aS)-9′-methoxy-14a-{[(1-methylcyclopropyl)sulfonyl]carbamoyl}-5,16-dioxo-5′-(trifluoromethyl)-1,1′,2′,5,6,7,8,9,10,11,13a,14,14a,15,16,16a-hexadecahydrospiro[cyclopropa[e]pyrrolo[1,2-a][1,4]diazacyclopentadecine-2,3′-pyrano[2,3-c]quinolin]-6-yl]carbamate], the half-maximal effective concentration (EC50) in experiment [1] was 1.42 nM. Also, the IC50 in experiment [2] stood at 0.01 nM.

Regarding `CCc1nc2ccc(OCCN3CCOCC3)cc2c2c1O[C@]1(CC2)C[C@H]2C(=O)N[C@]3(C(=O)NS(=O)(=O)C4(C)CC4)C[C@H]3/C=C\CCCCC[C@H](NC(=O)O[C@@H]3C[C@@H]4C[C@@H]4C3)C(=O)N2C1` [Example 516, (1R,3r,5S)-bicyclo[3.1.0]hex-3-yl {(2R,6S,12Z,13aS,14aR,16aS)-5′-ethyl-14a-{[(1-methylcyclopropyl)sulfonyl]carbamoyl}-9′-[2-(morpholin-4-yl)ethoxy]-5,16-dioxo-1,1′,2′,5,6,7,8,9,10,11,13a,14,14a,15,16,16a-hexadecahydrospiro[cyclopropa[e]pyrrolo[1,2-a][1,4]diazacyclopentadecine-2,3′-pyrano[2,3-c]quinolin]-6-yl}carbamate], the EC50 in experiment [1] (HCl salt) was 1.09 nM. In addition, in experiment [2] (HCl salt), the IC50 is 0.01 nM.

As to `COc1ccc2nc(C(F)(F)F)c3c(c2c1)OC[C@]1(C[C@H]2C(=O)N[C@]4(C(=O)NS(=O)(=O)C5(C)CC5)C[C@@H]4/C=C/CCCCC[C@H](NC(=O)OC(C)(C)C)C(=O)N2C1)O3` [Example 517, tert-butyl [(2R,6S,12E,13aR,14aR,16aS)-9′-methoxy-14a-{[(1-methylcyclopropyl)sulfonyl]carbamoyl}-5,16-dioxo-5′-(trifluoromethyl)-1,5,6,7,8,9,10,11,13a,14,14a,15,16,16a-tetradecahydrospiro[cyclopropa[e]pyrrolo[1,2-a][1,4]diazacyclopentadecine-2,3′-[1,4]dioxino[2,3-c]quinolin]-6-yl]carbamate], the EC50 in experiment [1] was 8.87 nM. Further, in experiment [2], half-maximal inhibition (IC50) was put at 11.2 nM.

As for `CC(C)(C)OC(=O)N[C@H]1CCCCC/C=C\[C@@H]2C[C@@]2(C(=O)NS(=O)(=O)C2(C)CC2)NC(=O)[C@@H]2C[C@]3(CCc4c(c(C(F)(F)F)nc5ccc(OCCN6CC(F)(F)C6)cc45)O3)CN2C1=O` [Example 518, tert-butyl [(2R,6S,12Z,13aS,14aR,16aS)-9′-[2-(3,3-difluoroazetidin-1-yl)ethoxy]-14a-{[(1-methylcyclopropyl)sulfonyl]carbamoyl}-5,16-dioxo-5′-(trifluoromethyl)-1,1′,2′,5,6,7,8,9,10,11,13a,14,14a,15,16,16a-hexadecahydrospiro[cyclopropa[e]pyrrolo[1,2-a][1,4]diazacyclopentadecine-2,3′-pyrano[2,3-c]quinolin]-6-yl]carbamate], the EC50 in experiment [1] worked out at 0.726 nM. Besides, in experiment [2], the IC50 amounted to 0.012 nM.

Consider `CCc1nc2ccc(OCCN3CCOCC3)cc2c2c1O[C@]1(CC2)C[C@H]2C(=O)N[C@]3(C(=O)NS(=O)(=O)C4(C)CC4)C[C@H]3/C=C\CCCCC[C@H](NC(=O)O[C@@H](C)C(C)C)C(=O)N2C1` [Example 519, (2S)-3-methylbutan-2-yl {(2R,6S,12Z,13aS,14aR,16aS)-5′-ethyl-14a-{[(1-methylcyclopropyl)sulfonyl]carbamoyl}-9′-[2-(morpholin-4-yl)ethoxy]-5,16-dioxo-1,1′,2′,5,6,7,8,9,10,11,13a,14,14a,15,16,16a-hexadecahydrospiro[cyclopropa[e]pyrrolo[1,2-a][1,4]diazacyclopentadecine-2,3′-pyrano[2,3-c]quinolin]-6-yl}carbamate], for which the EC50 in experiment [1] (HCl salt) stood at 0.541 nM. Further, the IC50 in experiment [2] (HCl salt) was found to be 0.009 nM.

Regarding `CC[C@H](C)OC(=O)N[C@H]1CCCCC/C=C\[C@@H]2C[C@@]2(C(=O)NS(=O)(=O)C2(C)CC2)NC(=O)[C@@H]2C[C@]3(CCc4c(c(C(F)F)nc5ccc(OC)nc45)O3)CN2C1=O` [Example 525, (2S)-butan-2-yl [(2R,6S,12Z,13aS,14aR,16aS)-6′-(difluoromethyl)-2′-methoxy-14a-{[(1-methylcyclopropyl)sulfonyl]carbamoyl}-5,16-dioxo-1,5,6,7,8,9,9′,10,10′,11,13a,14,14a,15,16,16a-hexadecahydrospiro[cyclopropa[e]pyrrolo[1,2-a][1,4]diazacyclopentadecine-2,8′-pyrano[2,3-c][1,5]naphthyridin]-6-yl]carbamate], in experiment [1], the EC50 came out at 1.16 nM. This compound also displayed an IC50 in experiment [2] of 0.004 nM.
